According to PubChem BioAssay (NCI):
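Step 1: Grow cells in 96-well plates. Step 2: Expose to compound for 48 hours at 5 concentrations. Step 3: Interpolate endpoints linearly; if unreached, use highest concentration. Definition used: TGI = concentration required for complete inhibition of growth.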

How the values were obtained:
Assay in all cases: NCI tumour cell line growth inhibition, 48 h
[1] = system: MDA-N
[2] = system: SNB-75 CNS
[3] = system: BT-549 breast
[4] = system: SNB-19 CNS
[5] = system: UO-31 renal
[6] = system: HOP-92 NSCLC
[7] = system: NCI-H23 lung
[8] = system: HL-60(TB) leukemia
[9] = system: PC-3 prostate
[10] = system: ACHN renal
[11] = system: UACC-62 melanoma
[12] = system: SF-539 CNS
[13] = system: LOX IMVI melanoma
[14] = system: HT29 colon
[15] = system: RXF 393 renal
[16] = system: A498 renal
[17] = system: SF-268 CNS
[18] = system: MALME-3M melanoma
[19] = system: NCI-H226 lung
[20] = system: M14 melanoma
[21] = system: SK-MEL-2 melanoma
[22] = system: EKVX NSCLC
[23] = system: MDA-MB-435
[24] = system: NCI-H460 lung
[25] = system: NCI-H522 lung
[26] = system: SK-MEL-28 melanoma
[27] = system: CCRF-CEM leukemia
[28] = system: SF-295 CNS
[29] = system: MDA-MB-231 breast
[30] = system: HCC-2998 colon
[31] = system: SK-OV-3 ovarian
[32] = system: DU-145 prostate
[33] = system: U251 CNS
[34] = system: OVCAR-5 ovarian
[35] = system: OVCAR-3 ovarian
[36] = system: SN12C renal
[37] = system: HOP-62 NSCLC
[38] = system: SW-620 colon
[39] = system: 786-0 renal
[40] = system: SR leukemia
[41] = system: UACC-257 melanoma
[42] = system: T-47D breast
[43] = system: HCT-15 colon
[44] = system: HCT-116 colon
[45] = system: TK-10 renal
[46] = system: SK-MEL-5 melanoma
[47] = system: OVCAR-8 ovarian
[48] = system: CAKI-1 renal
[49] = system: IGROV1 ovarian
[50] = system: K-562 leukemia
[51] = system: HS 578T breast
[52] = system: COLO 205 colon
[53] = system: KM12 colon
[54] = system: MOLT-4 leukemia
[55] = system: A549 NSCLC
[56] = system: OVCAR-4 ovarian
[57] = system: RPMI-8226 leukemia
[58] = system: NCI/ADR-RES ovarian
[59] = system: MCF7 breast

Question: What does the source list for `C=C1C(O)C23CCC4C(C(=O)O)(C(=O)O)CC(OC5OC(CO)C(O)C(OC(=O)CCc6ccccc6)C5NC(=O)CC(C)C)CC4(C)C2CCC1(O)C3` (stereo not given)?
Answer: TGI [1]: > 100 µM; TGI [2]: > 100 µM; TGI [3]: > 100 µM; TGI [4]: > 100 µM; TGI [5]: > 100 µM; TGI [6]: > 100 µM; TGI [7]: > 100 µM; TGI [8]: > 100 µM; TGI [9]: > 100 µM; TGI [10]: > 100 µM; TGI [11]: > 100 µM; TGI [12]: > 100 µM; TGI [13]: > 100 µM; TGI [14]: > 100 µM; TGI [15]: > 100 µM; TGI [16]: > 100 µM; TGI [17]: > 100 µM; TGI [18]: > 100 µM; TGI [19]: > 100 µM; TGI [20]: > 100 µM; TGI [21]: > 100 µM; TGI [22]: > 100 µM; TGI [23]: > 100 µM; TGI [24]: > 100 µM; TGI [25]: > 100 µM; TGI [26]: > 100 µM; TGI [27]: > 100 µM; TGI [28]: > 100 µM; TGI [29]: > 100 µM; TGI [30]: > 100 µM; TGI [31]: > 100 µM; TGI [32]: > 100 µM; TGI [33]: > 100 µM; TGI [34]: > 100 µM; TGI [35]: > 100 µM; TGI [36]: > 100 µM; TGI [37]: > 100 µM; TGI [38]: > 100 µM; TGI [39]: > 100 µM; TGI [40]: > 100 µM; TGI [41]: > 100 µM; TGI [42]: > 100 µM; TGI [43]: > 100 µM; TGI [44]: > 100 µM; TGI [45]: > 100 µM; TGI [46]: > 100 µM; TGI [47]: > 100 µM; TGI [48]: > 100 µM; TGI [49]: > 100 µM; TGI [50]: > 100 µM; TGI [51]: > 100 µM; TGI [52]: > 100 µM; TGI [53]: > 100 µM; TGI [54]: > 100 µM; TGI [55]: > 100 µM; TGI [56]: > 100 µM; TGI [57]: > 100 µM

Question: Which results are given for `Clc1ccc(-c2cc(-c3cc(-c4ccc(Cl)cc4)n[nH]3)[nH]n2)cc1`?
Answer: TGI [1]: > 100 µM; TGI [3]: > 100 µM; TGI [5]: > 100 µM; TGI [7]: > 100 µM; TGI [9]: > 100 µM; TGI [10]: > 100 µM; TGI [15]: > 100 µM; TGI [16]: > 100 µM; TGI [18]: > 100 µM; TGI [19]: > 100 µM; TGI [20]: > 100 µM; TGI [21]: > 100 µM; TGI [22]: > 100 µM; TGI [23]: > 100 µM; TGI [25]: > 100 µM; TGI [31]: > 100 µM; TGI [32]: > 100 µM; TGI [34]: > 100 µM; TGI [35]: > 100 µM; TGI [41]: > 100 µM; TGI [42]: > 100 µM; TGI [44]: > 100 µM; TGI [46]: > 100 µM; TGI [49]: > 100 µM; TGI [50]: > 100 µM; TGI [52]: > 100 µM; TGI [54]: > 100 µM

Question: With `CCCC1C(CC)C(NC)C(C#N)(C#N)C1(C#N)C#N` (stereo not given) as the compound, how does the TGI [1] read?
Answer: The TGI was 36.1 µM.

Question: And the TGI [2]?
Answer: The TGI was 22.5 µM.

Question: What about the TGI [4] of the same compound?
Answer: The TGI was 48.5 µM.

Question: What about the TGI [5] of the same compound?
Answer: Its TGI is 30 µM.

Question: And the TGI [6]?
Answer: Its TGI is 32.2 µM.

Question: What about the TGI [7] of the same compound?
Answer: The TGI was 46.8 µM.

Question: What about the TGI [8] of the same compound?
Answer: Its TGI is 91.8 µM.

Question: What about the TGI [9] of the same compound?
Answer: The TGI was 39.9 µM.

Question: What about the TGI [10] of the same compound?
Answer: The TGI was 43.1 µM.

Question: And the TGI [11]?
Answer: Its TGI is 39.2 µM.

Question: And the TGI [12]?
Answer: The TGI was 34.8 µM.

Question: And the TGI [13]?
Answer: Its TGI is 36.1 µM.

Question: What about the TGI [14] of the same compound?
Answer: The TGI was 27.6 µM.

Question: And the TGI [15]?
Answer: The TGI was 28 µM.

Question: And the TGI [16]?
Answer: Its TGI is 31.9 µM.

Question: What about the TGI [17] of the same compound?
Answer: The TGI was 34.3 µM.

Question: And the TGI [18]?
Answer: The TGI was 63.8 µM.

Question: And the TGI [19]?
Answer: Its TGI is 35.4 µM.

Question: And the TGI [20]?
Answer: The TGI was > 100 µM.

Question: And the TGI [21]?
Answer: The TGI was 35.7 µM.

Question: What about the TGI [22] of the same compound?
Answer: The TGI was 87.6 µM.

Question: What about the TGI [23] of the same compound?
Answer: The TGI was > 100 µM.

Question: And the TGI [25]?
Answer: The TGI was 33.3 µM.

Question: What about the TGI [26] of the same compound?
Answer: The TGI was 94.3 µM.

Question: And the TGI [27]?
Answer: Its TGI is > 100 µM.

Question: And the TGI [28]?
Answer: The TGI was 41.9 µM.

Question: And the TGI [29]?
Answer: Its TGI is 30.1 µM.

Question: What about the TGI [30] of the same compound?
Answer: Its TGI is 32.9 µM.

Question: And the TGI [31]?
Answer: Its TGI is > 100 µM.

Question: And the TGI [32]?
Answer: The TGI was 27.2 µM.

Question: What about the TGI [33] of the same compound?
Answer: The TGI was 95.1 µM.

Question: What about the TGI [34] of the same compound?
Answer: Its TGI is > 100 µM.

Question: And the TGI [36]?
Answer: Its TGI is 34.5 µM.

Question: And the TGI [37]?
Answer: Its TGI is 29.2 µM.

Question: And the TGI [38]?
Answer: The TGI was > 100 µM.

Question: What about the TGI [39] of the same compound?
Answer: Its TGI is 34.3 µM.

Question: And the TGI [40]?
Answer: The TGI was 82.3 µM.

Question: And the TGI [41]?
Answer: The TGI was 33.3 µM.

Question: And the TGI [42]?
Answer: The TGI was 29 µM.

Question: And the TGI [43]?
Answer: The TGI was 28.7 µM.

Question: What about the TGI [44] of the same compound?
Answer: Its TGI is 30.1 µM.

Question: And the TGI [58]?
Answer: The TGI was 59 µM.

Question: What about the TGI [59] of the same compound?
Answer: Its TGI is > 100 µM.

Question: What about the TGI [45] of the same compound?
Answer: The TGI was 34.6 µM.

Question: And the TGI [46]?
Answer: The TGI was 24.5 µM.

Question: What about the TGI [47] of the same compound?
Answer: The TGI was 58.9 µM.

Question: And the TGI [48]?
Answer: Its TGI is 25.9 µM.

Question: What about the TGI [49] of the same compound?
Answer: Its TGI is 33.4 µM.

Question: And the TGI [50]?
Answer: The TGI was > 100 µM.

Question: And the TGI [51]?
Answer: The TGI was > 100 µM.

Question: And the TGI [52]?
Answer: The TGI was 26.6 µM.

Question: And the TGI [53]?
Answer: Its TGI is 30.9 µM.

Question: What about the TGI [54] of the same compound?
Answer: The TGI was 76.9 µM.

Question: What about the TGI [55] of the same compound?
Answer: Its TGI is > 100 µM.

Question: What about the TGI [56] of the same compound?
Answer: Its TGI is > 100 µM.

Question: And the TGI [57]?
Answer: The TGI was 43.8 µM.
